Reference: US20040163143A1, “Method for efficiently producing transgenic plant using auxin precursor” (NIPPON PAPER INDUSTRIES CO., LTD., priority 2002, published 2004)

Experiments:
[1] = test system: E. globulus hypocotyl sections; experiment: E. globulus gene introduction test, vector pIPT10 (ipt only + GUS), adventitious bud redifferentiation and GUS staining; assay type: cell-based, Eucalyptus globulus; details: for B/A Redifferentiation ratio / C/A Gene introduction ratio / C/B Selection efficiency: section basis
Protocol: Seeds of E. globulus from Chile were sterilized by soaking in 70% ethanol for about 1 minute and then soaking with stirring in a 2% aqueous sodium hypochlorite solution for about 4 hours, washed thoroughly with sterile water, inoculated on an MS agar medium to which 0.5 mg/l zeatin had been added and stored in a refrigerator at 4° C. for 2 days to accelerate germination, and then the germination was carried out by culturing at 25° C. under light conditions of about 10 μmol/m^2/s in light intensity. One to two weeks after the inoculation of the seeds onto the germination medium, hypocotyls were collected by cutting out apical buds, cotyledons and roots of the germinated seedlings, and the hypocotyls were cut into sections of about 5 mm to be used as samples for gene introduction and subjected to the following test. A. tumefaciens EHA105 introduced with the plasmid pIAH6 in the above item I was cultured overnight in the YEB liquid medium and then diluted to OD630 =0.5 with EG basal medium, and the sections of hypocotyl prepared in the above were soaked in the cell suspension. Next, each of the sections after removing excess cell suspension was co-cultured with Agrobacterium on an agar medium (agar 8.5 g/l) prepared by adding 1.0 mg/l zeatin, 0.05 mg/l NAA and 40 mg/l acetosyringone to the EG basal medium, at 25° C. for 3 days in the dark to thereby infect each section with the pIAH6-introduced Agrobacterium. In this case, a modified MS medium having an ammonia nitrogen/nitrate nitrogen concentration ratio of 1:3 (5 mM NH4, 15 mM NO3) was supplemented with 20 g/l sucrose and used as the EG basal medium. The sections after infection culturing were put on an EG basal agar medium (agar 8.5 g/l) supplemented with 500 mg/l ticarcillin and 1 μM or 10 μM of an auxin precursor analogue NAM, and the culturing was continued at 25° C. under light conditions of 30 to 40 μmol/m^2/s in light intensity while sub-culturing at an interval of 2 weeks using the same medium. Among these sections, the quicker ones redifferentiated adventitious buds after about 2 months of the Agrobacterium infection. Three months after the Agrobacterium infection, in order to examine expression of the GUS gene used as a model of the desired gene, the redifferentiated adventitious buds were subjected to a GUS staining test in accordance with the method of Jefferson et al. (Plant Mol. Biol. Rep., 5: 387-405 (1987)), and the degree of formation of desired gene-introduced adventitious buds was judged by examining the number of stained adventitious buds (the number of adventitious buds expressing the desired gene). An E. globulus gene introduction test was carried out in the same manner as in Example 1, except that the hypocotyl sections after the Agrobacterium infection were cultured using the EG basal agar medium (agar 8.5 g/l) supplemented with 500 mg/l ticarcillin and 0 μM, 1 μM or 10 μM NAA as auxin. An E. globulus gene introduction test was carried out in the same manner as in Example 1 or Comparative Example 1, except that a plasmid pIPT10 having only the ipt gene as the selectable marker gene was used as the vector. Also, the vector also has the GUS gene as a model of the desired gene. Structure of T-DNA region of the pIPT10 used in this case is shown in FIG. 2, and results of the gene introduction test are shown in Table 3.

[2] = test system: E. globulus hypocotyl sections; experiment: E. globulus gene introduction test, vector pIAH6 (ipt + iaaH + GUS), adventitious bud redifferentiation and GUS staining; assay type: cell-based, Eucalyptus globulus; details: for B Adventitious bud differentiated (number of sections): 3 months after infection; for B/A Redifferentiation ratio / C/A Gene introduction ratio / C/B Selection efficiency: section basis
Protocol: Using a plasmid pIAH6 as a vector having a GUS gene as a model of a desired gene and an ipt gene and an iaaH gene as selectable marker genes, a transformant was produced by carrying out gene introduction into Eucalyptus globulus (hereinafter referred to as “E. globulus”) by the method of the present invention. Seeds of E. globulus from Chile were sterilized by soaking in 70% ethanol for about 1 minute and then soaking with stirring in a 2% aqueous sodium hypochlorite solution for about 4 hours, washed thoroughly with sterile water, inoculated on an MS agar medium to which 0.5 mg/l zeatin had been added and stored in a refrigerator at 4° C. for 2 days to accelerate germination, and then the germination was carried out by culturing at 25° C. under light conditions of about 10 μmol/m^2/s in light intensity. One to two weeks after the inoculation of the seeds onto the germination medium, hypocotyls were collected by cutting out apical buds, cotyledons and roots of the germinated seedlings, and the hypocotyls were cut into sections of about 5 mm to be used as samples for gene introduction and subjected to the following test. A. tumefaciens EHA105 introduced with the plasmid pIAH6 in the above item I was cultured overnight in the YEB liquid medium and then diluted to OD630 =0.5 with EG basal medium, and the sections of hypocotyl prepared in the above were soaked in the cell suspension. Next, each of the sections after removing excess cell suspension was co-cultured with Agrobacterium on an agar medium (agar 8.5 g/l) prepared by adding 1.0 mg/l zeatin, 0.05 mg/l NAA and 40 mg/l acetosyringone to the EG basal medium, at 25° C. for 3 days in the dark to thereby infect each section with the pIAH6-introduced Agrobacterium. In this case, a modified MS medium having an ammonia nitrogen/nitrate nitrogen concentration ratio of 1:3 (5 mM NH4, 15 mM NO3) was supplemented with 20 g/l sucrose and used as the EG basal medium. The sections after infection culturing were put on an EG basal agar medium (agar 8.5 g/l) supplemented with 500 mg/l ticarcillin and 1 μM or 10 μM of an auxin precursor analogue NAM, and the culturing was continued at 25° C. under light conditions of 30 to 40 μmol/m^2/s in light intensity while sub-culturing at an interval of 2 weeks using the same medium. Among these sections, the quicker ones redifferentiated adventitious buds after about 2 months of the Agrobacterium infection. Three months after the Agrobacterium infection, in order to examine expression of the GUS gene used as a model of the desired gene, the redifferentiated adventitious buds were subjected to a GUS staining test in accordance with the method of Jefferson et al. (Plant Mol. Biol. Rep., 5: 387-405 (1987)), and the degree of formation of desired gene-introduced adventitious buds was judged by examining the number of stained adventitious buds (the number of adventitious buds expressing the desired gene). An E. globulus gene introduction test was carried out in the same manner as in Example 1, except that the hypocotyl sections after the Agrobacterium infection were cultured using the EG basal agar medium (agar 8.5 g/l) supplemented with 500 mg/l ticarcillin and 0 μM, 1 μM or 10 μM NAA as auxin.

[3] = NAM 1 μM in medium, 60 sections tested
[4] = NAM 10 μM in medium, 48 sections tested

SMILES: NC(=O)Cc1cccc2ccccc12 [NAM, naphthaleneacetic acid amide]
- B Adventitious bud differentiated (number of sections) ([1]; additive 1 μM in medium): 2 number of sections
- C GUS + adventitious bud differentiated (number of sections) ([1]; additive 1 μM in medium): 0 number of sections
- B/A Redifferentiation ratio ([1]; additive 1 μM in medium): 4.4%
- C/A Gene introduction ratio ([1]; additive 1 μM in medium): 0.0%
- C/B Selection efficiency ([1]; additive 1 μM in medium): 0%
- B Adventitious bud differentiated (number of sections) ([1]; additive 10 μM in medium): 0 number of sections
- C GUS + adventitious bud differentiated (number of sections) ([1]; additive 10 μM in medium): 0 number of sections
- B/A Redifferentiation ratio ([1]; additive 10 μM in medium): 0%
- C/A Gene introduction ratio ([1]; additive 10 μM in medium): 0.0%
- C/B Selection efficiency ([1]; additive 10 μM in medium): 0%
- C GUS + adventitious bud differentiated (number of sections) [2, 3]: 8 number of sections
- B Adventitious bud differentiated (number of sections) [2, 3]: 21 number of sections
- B/A Redifferentiation ratio ([2]; NAM 1 μM in medium): 35.0%
- C/A Gene introduction ratio ([2]; NAM 1 μM in medium): 13.3%
- C/B Selection efficiency ([2]; NAM 1 μM in medium): 38.1%
- C GUS + adventitious bud differentiated (number of sections) [2, 4]: 1 number of sections
- B Adventitious bud differentiated (number of sections) [2, 4]: 2 number of sections
- B/A Redifferentiation ratio ([2]; NAM 10 μM in medium): 4.2%
- C/A Gene introduction ratio ([2]; NAM 10 μM in medium): 2.1%
- C/B Selection efficiency ([2]; NAM 10 μM in medium): 50.0%
